Source: US10308644B2, “Heterocyclic compounds as immunomodulators” (Incyte Corporation, priority 2016, dated 2019)

target: PD-1/PD-L1 (Homo sapiens (Human), UniProt Q9NZQ7); test: PD-1/PD-L1 Homogeneous Time-Resolved Fluorescence (HTRF) Binding Assay; settings: recombinant human PD-1 (3 nM) and PD-L1 (10 nM), 25° C., PBS pH 7.4
In short: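 Fc-tagged human PD-1 (25-167, 3 nM) and His-tagged PD-L1 (19-238, 10 nM) preincubated with inhibitor 40 min in PBS pH 7.4, 0.05% Tween-20, 0.1% BSA, 1% DMSO, 25 °C. Binding detected by HTRF (Eu anti-IgG/APC anti-His, 665/620 nm) after 60 min; IC50 from percent control activity.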

Sequence of PD-1/PD-L1 (Q9NZQ7 19-238): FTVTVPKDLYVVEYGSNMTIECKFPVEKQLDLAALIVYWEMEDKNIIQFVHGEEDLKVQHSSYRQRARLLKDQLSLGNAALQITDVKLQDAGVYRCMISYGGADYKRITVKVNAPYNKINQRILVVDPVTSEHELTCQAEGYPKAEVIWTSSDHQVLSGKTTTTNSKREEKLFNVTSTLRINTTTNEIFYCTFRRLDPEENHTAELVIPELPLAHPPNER

Row | IC50 | SMILES
1 | ≤ 10 nM | CNC(=O)[C@@H]1CCN(Cc2cc(C#N)c3oc(-c4cccc(-c5cccc(-n6cc7c(n6)CN(C(C)C)CC7)c5Cl)c4C)nc3c2)C1 [Example 103, (R)-1-((2-(2′-chloro-3′-(6-isopropyl-4,5,6,7-tetrahydro-2H-pyrazolo[3,4-c]pyridin-2-yl)-2-methylbiphenyl-3-yl)-7-cyanobenzo[d]oxazol-5-yl)methyl)-N-methylpyrrolidine-3-carboxamide]
2 | ≤ 10 nM | Cc1c(Nc2nccc3cc(CN4CCC(C(=O)O)CC4)cnc23)cccc1-c1cccc(-c2nc3cc(CN[C@@H](C)CO)cc(C#N)c3o2)c1C [Example 213, (S)-1-((8-(3′-(7-cyano-5-((1-hydroxypropan-2-ylamino)methyl)benzo[d]oxazol-2-yl)-2,2′-dimethylbiphenyl-3-ylamino)1,7-naphthyridin-3-yl)methyl)piperidine-4-carboxylic acid]
3 | ≤ 10 nM | Cc1c(-c2nc3cc(CN4CCC(C(=O)O)CC4)cc(C#N)c3o2)cccc1-c1cccc(NC(=O)c2nc3c(n2C)CC(C)N(C)C3)c1Cl (stereo not drawn) [Example 162, 1-((2-(2′-chloro-2-methyl-3′-(1,5,6-trimethyl-4,5,6,7-tetrahydro-1H-imidazo[4,5-c]pyridine-2-carboxamido)biphenyl-3-yl)-7-cyanobenzo[d]oxazol-5-yl)methyl)piperidine-4-carboxylic acid]
4 | ≤ 10 nM | Cc1c(Nc2nccc3cc(C4CN(CCO)C4)cnc23)cccc1-c1cccc(-c2nc3cc(CN4CC[C@@H](C(=O)O)C4)cc(C#N)c3o2)c1C [Example 96, (R)-1-((7-cyano-2-(3′-(3-(1-(2-hydroxyethyl)azetidin-3-yl)-1,7-naphthyridin-8-ylamino)-2,2′-dimethylbiphenyl-3-yl)benzo[d]oxazol-5-yl)methyl)pyrrolidine-3-carboxylic acid]
5 | ≤ 10 nM | Cc1c(Nc2nccc3cc(CN4CCC4)cnc23)cccc1-c1cccc(-c2nc3cc(CN4CC[C@@H](C(=O)O)C4)cc(C#N)c3o2)c1C [Example 135, (R)-1-((2-(3′-(3-(azetidin-1-ylmethyl)-1,7-naphthyridin-8-ylamino)-2,2′-dimethylbiphenyl-3-yl)-7-cyanobenzo[d]oxazol-5-yl)methyl)pyrrolidine-3-carboxylic acid]
6 | ≤ 10 nM | Cc1c(Nc2ncnc3cccnc23)cccc1-c1cccc(-c2nc3cc(CN4CC[C@@H](C(=O)O)C4)cc(C#N)c3o2)c1C [Example 13, (R)-1-((7-cyano-2-(2,2′-dimethyl-3′-(pyrido[3,2-d]pyrimidin-4-ylamino)biphenyl-3-yl)benzo[d]oxazol-5-yl)methyl)pyrrolidine-3-carboxylic acid]
7 | ≤ 10 nM | Cc1c(-c2nc3cc(CN4CC[C@@H](C(=O)O)C4)cc(C#N)c3o2)cccc1-c1cccc(N2CCC(N[C@H]3C[C@@H](O)C3)CC2)c1Cl [Example 47, (R)-1-((2-(2′-chloro-3′-(4-((1s,3s)-3-hydroxycyclobutylamino)piperidin-1-yl)-2-methylbiphenyl-3-yl)-7-cyanobenzo[d]oxazol-5-yl)methyl)pyrrolidine-3-carboxylic acid]
8 | ≤ 10 nM | Cc1c(-c2nc3cc(CN4CC[C@@H](C(=O)O)C4)cc(C#N)c3o2)cccc1-c1cccc(-c2nc3c(s2)CN(C(=O)CN2CCC2)C3)c1C [Example 113, (R)-1-((2-(3′-(5-(2-(azetidin-1-yl)acetyl)-5,6-dihydro-4H-pyrrolo[3,4-d]thiazol-2-yl)-2,2′-dimethylbiphenyl-3-yl)-7-cyanobenzo[d]oxazol-5-yl)methyl)pyrrolidine-3-carboxylic acid]
9 | ≤ 10 nM | COCC1(C(=O)O)CCN(Cc2cc(C#N)c3oc(-c4cccc(-c5cccc(Nc6nccc7cc(CN8CC[C@@H](O)C8)cnc67)c5C)c4C)nc3c2)C1 (stereo partly drawn) [Example 185, 1-((7-cyano-2-(3′-(3-(((R)-3-hydroxypyrrolidin-1-yl)methyl)-1,7-naphthyridin-8-ylamino)-2,2′-dimethylbiphenyl-3-yl)benzo[d]oxazol-5-yl)methyl)-3-(methoxymethyl)pyrrolidine-3-carboxylic acid]
10 | ≤ 10 nM | Cc1c(-c2nc3cc(CN4CC[C@@H](O)C4)cc(C#N)c3o2)cccc1-c1cccc(NC(=O)c2nc3c(n2C)CCN(CCC2CCC(C(=O)O)CC2)C3)c1Cl (stereo partly drawn) [Example 265, (R)-4-(2-(2-(2-chloro-3′-(7-cyano-5-((3-hydroxypyrrolidin-1-yl)methyl)benzo[d]oxazol-2-yl)-2′-methylbiphenyl-3-ylcarbamoyl)-1-methyl-6,7-dihydro-1H-imidazo[4,5-c]pyridin-5(4H)-yl)ethyl)cyclohexane carboxylic acid]
11 | ≤ 10 nM | Cc1c(-c2nc3cc(CN4CC[C@@H](C(=O)O)C4)cc(Cl)c3o2)cccc1-c1cccc(N2CCC(NCC3(CO)CCC3)CC2)c1Cl [Example 46, (R)-1-((7-chloro-2-(2′-chloro-3′-(4-((1-(hydroxymethyl)cyclobutyl)methylamino)piperidin-1-yl)-2-methylbiphenyl-3-yl)benzo[d]oxazol-5-yl)methyl)pyrrolidine-3-carboxylic acid]
12 | ≤ 10 nM | Cc1c(NC(=O)c2nc3c(n2C)CCN(C)C3)cccc1-c1cccc(-c2nc3cc(CN4CCC(C(=O)O)CC4)cc(C#N)c3o2)c1C [Example 259, 1-((7-cyano-2-(3′-(1,5-dimethyl-4,5,6,7-tetrahydro-1H-imidazo[4,5-c]pyridine-2-carboxamido)-2,2′-dimethylbiphenyl-3-yl)benzo[d]oxazol-5-yl)methyl)piperidine-4-carboxylic acid]
13 | ≤ 10 nM | Cc1c(-c2nc3cc(CN4CC[C@@H](O)C4)cc(C#N)c3o2)cccc1-c1cccc(NC(=O)c2nc3c(n2C)CCN(CC24CCC(C(=O)O)(CC2)C4)C3)c1Cl [Example 267, (R)-4-((2-(2-chloro-3′-(7-cyano-5-((3-hydroxypyrrolidin-1-yl)methyl)benzo[d]oxazol-2-yl)-2′-methylbiphenyl-3-ylcarbamoyl)-1-methyl-6,7-dihydro-1H-imidazo[4,5-c]pyridin-5(4H)-yl)methyl)bicyclo[2.2.1]heptane-1-carboxylic acid]
14 | ≤ 10 nM | Cc1c(Nc2nccc3cc(CN4CC[C@@H](C(=O)O)C4)cnc23)cccc1-c1cccc(-c2nc3cc(CN4CC[C@@H](O)C4)cc(C#N)c3o2)c1C [Example 141, (R)-1-((8-(3′-(7-cyano-5-(((R)-3-hydroxypyrrolidin-1-yl)methyl)benzo[d]oxazol-2-yl)-2,2′-dimethylbiphenyl-3-ylamino)-1,7-naphthyridin-3-yl)methyl)pyrrolidine-3-carboxylic acid]
15 | ≤ 10 nM | Cc1c(-c2nc3cc(CN4CC[C@@H](C(=O)O)C4)cc(C#N)c3o2)cccc1-c1cccc(Nc2nccc3cc(CN4CC[C@H](O)C4)cnc23)c1Cl [Example 30, (R)-1-((2-(2′-chloro-3′-(3-(((S)-3-hydroxypyrrolidin-1-yl)methyl)-1,7-naphthyridin-8-ylamino)-2-methylbiphenyl-3-yl)-7-cyanobenzo[d]oxazol-5-yl)methyl)pyrrolidine-3-carboxylic acid]
16 | ≤ 10 nM | Cc1c(-c2nc3cc(CN4CC[C@H](C(=O)O)C4)cc(C#N)c3o2)cccc1-c1cccc(Nc2nccc3cc(CN4CC[C@@H](O)C4)cnc23)c1Cl [Example 83, (S)-1-((2-(2′-chloro-3′-(3-(((R)-3-hydroxypyrrolidin-1-yl)methyl)-1,7-naphthyridin-8-ylamino)-2-methylbiphenyl-3-yl)-7-cyanobenzo[d]oxazol-5-yl)methyl)pyrrolidine-3-carboxylic acid]
17 | ≤ 10 nM | Cc1c(-c2nc3c(o2)CN(C(=O)CN2CCCC[C@H]2C(=O)O)C3)cccc1-c1cccc(-c2nc3cc(CN4CC[C@@H](O)C4)cc(C#N)c3o2)c1C [Example 133, (S)-1-(2-(2-(3′-(7-cyano-5-(((R)-3-hydroxypyrrolidin-1-yl)methyl)benzo[d]oxazol-2-yl)-2,2′-dimethyl-[1,1′-biphenyl]-3-yl)-4,6-dihydro-5H-pyrrolo[3,4-d]oxazol-5-yl)-2-oxoethyl)piperidine-2-carboxylic acid]
18 | ≤ 10 nM | Cc1c(Nc2nccc3c(CN4CC[C@H](O)C4)ccnc23)cccc1-c1cccc(-c2nc3cc(CN4CC[C@@H](C(=O)O)C4)cc(C#N)c3o2)c1C [Example 145, (R)-1-((7-cyano-2-(3′-((4-(((S)-3-hydroxypyrrolidin-1-yl)methyl)-1,7-naphthyridin-8-yl)amino)-2,2′-dimethyl-[1,1′-biphenyl]-3-yl)benzo[d]oxazol-5-yl)methyl)pyrrolidine-3-carboxylic acid]
19 | ≤ 10 nM | Cc1c(-c2nc3cc(CN4CC[C@@H](O)C4)cc(Cl)c3o2)cccc1-c1cccc(NC(=O)c2cc(CN3CC[C@@H](C(=O)O)C3)cn(C)c2=O)c1Cl [Example 151, (R)-1-((5-(2-chloro-3′-(7-chloro-5-(((R)-3-hydroxypyrrolidin-1-yl)methyl)benzo[d]oxazol-2-yl)-2′-methylbiphenyl-3-ylcarbamoyl)-1-methyl-6-oxo-1,6-dihydropyridin-3-yl)methyl)pyrrolidine-3-carboxylic acid]
20 | ≤ 10 nM | Cc1c(Nc2nccc3cc(CN4CC[C@H](O)C4)cnc23)cccc1-c1cccc(-c2nc3cc(CN4CC(C(=O)O)C4)cc(Cl)c3o2)c1C [Example 23, (S)-1-((7-chloro-2-(3′-(3-((3-hydroxypyrrolidin-1-yl)methyl)-1,7-naphthyridin-8-ylamino)-2,2′-dimethylbiphenyl-3-yl)benzo[d]oxazol-5-yl)methyl)azetidine-3-carboxylic acid]
21 | ≤ 10 nM | Cc1c(Nc2nccc3cc(C4=NCCN4)cnc23)cccc1-c1cccc(-c2nc3cc(CN4CC[C@@H](C(=O)O)C4)cc(C#N)c3o2)c1C [Example 166, (R)-1-((7-cyano-2-(3′-(3-(4,5-dihydro-1H-imidazol-2-yl)-1,7-naphthyridin-8-ylamino)-2,2′-dimethylbiphenyl-3-yl)benzo[d]oxazol-5-yl)methyl)pyrrolidine-3-carboxylic acid]
